{"source": "patent US8609733B2", "about": "“Sensory-specific local anesthesia and prolonged duration local anesthesia” (Massachusetts Institute of Technology, priority 2008, dated 2013)", "type_in_all_cases": "in vivo, Sprague-Dawley rats", "key": {"[1]": {"tested_on": "sciatic nerve", "assay": "Sensory selectivity of sciatic nerve blockade (thermal nociceptive versus motor block)", "details": "for selective thermal nociceptive blockade as compared to motor blockade: in combination with OTAB (Example 3: 100 mM QX-222, 30 mM OTAB)", "protocol": "(§1) Animals were cared for in compliance with protocols approved by the Massachusetts Institute of Technology (MIT) Committee on Animal Care, in conformity with the NIH guidelines for the care and use of laboratory animals (NIH publication #85-23, revised 1985). Rats were anesthetized using isoflurane in oxygen. A 25-gauge needle was introduced posteromedial to the greater trochanter, and 300 μL of the QX-314+/−enhancer solution was injected upon contacting bone. To determine the effect of QX-314 on sensory and motor blockade, animals were injected with QX-314 at different concentrations. To determine the effect of the chemical penetration enhancer (OTAB) on the sensory and motor blockade produced by QX-314, animals were injected with different concentrations of OTAB, with the concentration of QX-314 kept constant at 25 mM.\n(§2) In all experiments, the experimenter was blinded as to what treatment any given rat had received. Presence and extent of nerve blockade was investigated as previously described (Kohane, et al., Anesthesiology, 89:1199-1208 (1998); Padera, et al., Muscle Nerve, 34:747-53 (2006); Kohane, et al., Anesthesiology, 89:119-31 (1998); Masters, et al., Anesthesiology, 79(2):340-346 (1993)). Briefly, thermal nociception of each leg was assessed, with the right (uninjected) leg serving as an untreated control.\n(§3) Thermal nociception was assessed by a modified hotplate test. Hind paws were exposed in sequence (left then right) to a 56° C. hot plate (Model 39D Hot Plate Analgesia Meter, IITC Inc., Woodland Hills, Calif.). The time (latency) until paw withdrawal was measured with a stopwatch.\n(§4) The duration of thermal nociceptive block was calculated as the time required for thermal latency to return to a value of 7 seconds from a higher value. Seven seconds is the midpoint between a baseline thermal latency of approximately 2 seconds in adult rats and a Maximal latency of 12 seconds. Latencies greater than 7 sec were considered to be effective blocks.\n(§5) The rat was held with its posterior placed at a digital balance on which it could bear weight with one hindpaw at a time. The maximum weight that the rat could bear without its ankle touching the balance was measured.\n(§6) Methods were as described in Example 1.\n(§7) To establish that the selective block could be obtained with other local anesthetics, the methods of example 1 were performed using 100 mM QX-222 and 30 mM OTAB, and compared to the results obtained using 100 mM […] and 30 mM OTAB."}, "[2]": {"tested_on": "sciatic nerve", "assay": "Duration of thermal nociceptive (sensory) block after sciatic nerve injection, modified hotplate test", "protocol": "(§8) Young adult male Sprague-Dawley rats (350-420 g) were obtained from Charles River Laboratories (Wilmington, Mass.) and housed in groups of two per cage on a 6 a.m. to 6 p.m. light/dark cycle. All animals were cared for in accordance with protocols approved institutionally and nationally.\n(§9) QX-314 and octyltriethylammonium bromide (OTAB) (Sigma) solutions were prepared in saline individually and in combination with each enhancer the night before scheduled injections.\nas §1, §2, §3, §4, §6, §7"}, "[3]": {"tested_on": "sciatic nerve", "assay": "Duration of motor block after sciatic nerve injection, extensor postural thrust (EPT)", "protocol": "as §8, §9, §1, §2, §5, §6, §7"}, "[4]": {"details": "25 mM QX-314 co-injected with 5 mM SOS"}, "[5]": {"details": "25 mM QX-314 co-injected with 10 mM SOS"}, "[6]": {"details": "25 mM QX-314 co-injected with 0.5% TWEEN 20"}, "[7]": {"details": "QX-314 without CPE, different concentrations, 300 μl"}}, "note": "Values joined by “and” are separate entries in the source; they are usually repeats but may differ in a detail not shown here. Equal values may be shown once."}
{"smiles": "CC[N+](CC)(CC)CC(=O)Nc1c(C)cccc1C", "note": "[QX-314, N-(2,6)dimethylphenylcarbamoylmethyl triethylammonium bromide]", "values": [{"measurement": "sensory selectivity", "setting": "[1]; 25 mM QX-314 co-injected with SOS 5, 10, 20, 30 mM", "value": "sensory selectivity at all concentrations of SOS"}, {"measurement": "sensory specificity", "setting": "[1]; 25 mM QX-314 with higher OTAB concentrations (>30 mM)", "value": "no sensory specificity"}, {"measurement": "specificity of block", "setting": "[1]; 25 mM QX-314 with higher SOS concentrations (10-30 mM)", "value": "initially non-specific"}, {"measurement": "sensory versus motor block duration", "setting": "[1]; 25 mM QX-314 with lower concentrations of OTAB (10-30 mM)", "value": "significant increase in sensory block duration, without a corresponding increase in motor block duration"}, {"measurement": "modality specificity", "setting": "[1]; QX-314 in the absence of a CPE", "value": "no evidence of modality specificity"}, {"measurement": "TWEEN 20 concentration of maximum sensory specificity (optimal)", "setting": "[1]; co-injected with 25 mM QX-314", "value": 0.5, "unit": "%"}, {"measurement": "selective thermal nociceptive blockade as compared to motor blockade", "setting": "[1]", "value": "Comparable selective thermal nociceptive blockade"}, {"measurement": "SOS concentration range with sensory selectivity", "setting": "[1]; with 25 mM QX-314", "value": "1 to 50", "unit": "mM"}, {"measurement": "optimal OTAB concentration for sensory selectivity", "setting": "[1]; with 25 mM QX-314", "value": 20, "unit": "mM"}, {"measurement": "sensory block", "setting": "[2]; [4]", "value": 235, "unit": "min"}, {"measurement": "sensory block", "setting": "[2]; [5]", "value": 870, "unit": "min"}, {"measurement": "sensory DEB (duration of effective block)", "setting": "[2]; 25 mM QX-314 co-injected with 20 mM OTAB", "value": "428 min and 406 min"}, {"measurement": "duration of sensory block", "setting": "[2]; 25 mM QX-314 co-injected with 30 mM OTAB", "value": 450, "unit": "min"}, {"measurement": "median sensory blockade", "setting": "[2]; [6]", "value": 269, "unit": "min"}, {"measurement": "sensory duration of block versus concentration", "setting": "[2]; [7]", "value": "concentration-dependent increase"}, {"measurement": "duration of motor block", "setting": "[3]; 25 mM QX-314 alone, 300 μL at the sciatic nerve, rat", "value": 165, "unit": "min"}, {"measurement": "motor block", "setting": "[3]; [4]", "value": 0, "unit": "min"}, {"measurement": "motor block", "setting": "[3]; [5]", "value": 532, "unit": "min"}, {"measurement": "motor effect", "setting": "[3]; 25 mM QX-314 co-injected with 20 mM or 30 mM OTAB", "value": "little or no motor effect"}, {"measurement": "median motor blockade", "setting": "[3]; [6]", "value": 0, "unit": "min"}, {"measurement": "motor duration of block versus concentration", "setting": "[3]; [7]", "value": "concentration-dependent increase"}]}
{"smiles": "Cc1cccc(C)c1NC(=O)C[N+](C)(C)C", "note": "[QX-222, 2-((2,6-dimethylphenyl)amino)-N,N,N-trimethyl-2-oxoethanaminium]", "values": [{"measurement": "selective thermal nociceptive blockade as compared to motor blockade", "setting": "[1]", "value": "Comparable selective thermal nociceptive blockade"}]}
